Measured values as given in publication PMC7531004, “Discovery of gramicidin A analogues with altered activities by multidimensional screening of a one-bead-one-compound library” (Nature Communications, 2020).
Where a SMILES comes first, the peptide text is derived from it. [ ]: non-standard residue; d: D form. The star is where a group is joined. NHCH2CH2OH = OCCN*; For = O=C*

Columns and labels:
[1] = H+/Na+ transport assay of bead-derived peptides (one-point); format: biochemical; parameters: key: relative activity; mean of two control wells = 1.00; settings: bead-derived peptide solution, EYPC/EYPG LUVs;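 also: relative to parent gramicidin A activity set to 1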
Outline: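 H+/Na+ transport is monitored through pyranine fluorescence in freshly extruded LUVs after a 30-min room-temperature vortex with each library peptide at a single concentration. Signals are normalized to detergent (Triton X-100) and untreated controls.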

[2] = tested on: P388 mouse leukemia cells; settings: 92 h
Outline: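 First, library peptide stocks are diluted 250-fold in RPMI1640 with 10% heat-inactivated FBS. Next, they are mixed with P388 cells to give 1 × 10^4 cells/mL and incubated 92 h at 37 °C, 5% CO2. Finally, viability (%) is scored by WST-1 absorbance at 415 nm.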

[3] = tested on: Streptococcus pyogenes SSI-9; experiment: Antibacterial activity assay of bead-derived peptides (three concentrations); format: cell-based; parameters: key: +++: inhibition by the 640-fold diluted peptide solution; ++: inhibition by the 160-fold diluted solution; +: inhibition by the 40-fold diluted solution; -: no inhibition; settings: S. pyogenes, bead-derived peptide solution, three concentrations
Outline: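 Bead-derived library peptide stocks in DMSO were tested undiluted and after 4- and 16-fold DMSO dilution against S. pyogenes SSI-9 (2 × 10^5 CFU/well) in cation-adjusted Mueller Hinton Broth with 5% laked horse blood. After 18 h at 37 °C, wells were scored for precipitation of grown cells.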

Q: Which results are given for `CNC(=O)C[C@@H](NC(=O)[C@@H](NC(=O)[C@H](NC(=O)[C@H](C)NC(=O)[C@@H](CC(C)C)NC(=O)[C@H](C)NC(=O)CNC(=O)[C@@H](NC=O)C(C)C)C(C)C)C(C)C)C(=O)N[C@@H](Cc1c[nH]c2ccccc12)C(=O)N[C@H](CC(C)C)C(=O)N[C@@H](Cc1c[nH]c2ccccc12)C(=O)N[C@@H](C(=O)N[C@@H](Cc1c[nH]c2ccccc12)C(=O)N[C@@H](C(=O)N[C@@H](Cc1c[nH]c2ccccc12)C(=O)NCCO)C(C)C)C(C)C` [compound 2932] (For-VGA[dL]A[dV]V[dD](NHMe)W[dL]W[dV]W[dV]W-NHCH2CH2OH)?
A: H+/Na+ transport activity normalized against the value of 1 (1.00) [1]: 1.27; cell viability/% [2]: 87.5%; antibacterial activity [3]: -

Q: Which “H+/Na+ transport activity normalized against the value of 1 (1.00)” value (shortened to “H+/Na+ transport activity normalized”) [1] does the source give for `CNC(=O)C[C@@H](NC(=O)[C@@H](NC(=O)[C@@H](CC(C)C)NC(=O)[C@H](C)NC(=O)[C@@H](CC(C)C)NC(=O)[C@H](C)NC(=O)CNC(=O)[C@@H](NC=O)C(C)C)C(C)C)C(=O)N[C@@H](Cc1c[nH]c2ccccc12)C(=O)N[C@@H](C(=O)N[C@@H](Cc1c[nH]c2ccccc12)C(=O)N[C@@H](C(=O)N[C@@H](Cc1c[nH]c2ccccc12)C(=O)N[C@H](CC(C)C)C(=O)N[C@@H](Cc1c[nH]c2ccccc12)C(=O)NCCO)C(C)C)C(C)C` [compound 2951] (For-VGA[dL]A[dL]V[dD](NHMe)W[dV]W[dV]W[dL]W-NHCH2CH2OH) here?
A: 1.10

Q: And the cell viability/% [2]?
A: 93.1%

Q: And the antibacterial activity [3]?
A: -

Q: What does the source list for `CNC(=O)C[C@@H](NC(=O)[C@@H](NC(=O)[C@@H](CC(C)C)NC(=O)[C@H](C)NC(=O)[C@@H](CC(C)C)NC(=O)[C@H](C)NC(=O)CNC(=O)[C@@H](NC=O)C(C)C)C(C)C)C(=O)N[C@@H](Cc1c[nH]c2ccccc12)C(=O)N[C@H](CC(C)C)C(=O)N[C@@H](Cc1c[nH]c2ccccc12)C(=O)N[C@@H](C(=O)N[C@@H](Cc1c[nH]c2ccccc12)C(=O)N[C@H](CC(C)C)C(=O)N[C@@H](Cc1c[nH]c2ccccc12)C(=O)NCCO)C(C)C` [compound 2953] (For-VGA[dL]A[dL]V[dD](NHMe)W[dL]W[dV]W[dL]W-NHCH2CH2OH)?
A: H+/Na+ transport activity normalized against the value of 1 (1.00) [1]: 1.20; cell viability/% [2]: 100.0%; antibacterial activity [3]: -

Q: For `CNC(=O)C[C@@H](NC(=O)[C@@H](NC(=O)[C@@H](CC(C)C)NC(=O)[C@H](C)NC(=O)[C@@H](CC(C)C)NC(=O)[C@H](C)NC(=O)CNC(=O)[C@@H](NC=O)C(C)C)C(C)C)C(=O)N[C@@H](Cc1c[nH]c2ccccc12)C(=O)N[C@H](CC(C)C)C(=O)N[C@@H](Cc1c[nH]c2ccccc12)C(=O)N[C@H](CC(C)C)C(=O)N[C@@H](Cc1c[nH]c2ccccc12)C(=O)N[C@@H](C(=O)N[C@@H](Cc1c[nH]c2ccccc12)C(=O)NCCO)[C@H](C)O` [compound 2967] (For-VGA[dL]A[dL]V[dD](NHMe)W[dL]W[dL]W[dT]W-NHCH2CH2OH), which “H+/Na+ transport activity normalized” value [1] is on record?
A: 1.04

Q: And the cell viability/% [2]?
A: 100.0%

Q: And the antibacterial activity [3]?
A: -

Q: With `CC(C)C[C@@H](NC(=O)[C@H](Cc1c[nH]c2ccccc12)NC(=O)[C@H](NC(=O)[C@H](Cc1c[nH]c2ccccc12)NC(=O)[C@@H](CC(C)C)NC(=O)[C@H](Cc1c[nH]c2ccccc12)NC(=O)[C@H](NC(=O)[C@@H](NC(=O)[C@H](NC(=O)[C@H](C)NC(=O)[C@H](NC(=O)[C@H](C)NC(=O)CNC(=O)[C@@H](NC=O)C(C)C)C(C)C)C(C)C)C(C)C)C(C)C)C(C)C)C(=O)N[C@@H](Cc1c[nH]c2ccccc12)C(=O)NCCO` [compound 2994] (For-VGA[dV]A[dV]V[dV]W[dL]W[dV]W[dL]W-NHCH2CH2OH) as the compound, how does the “H+/Na+ transport activity normalized” value [1] read?
A: 1.14

Q: And the cell viability/% [2]?
A: 6.3%

Q: And the antibacterial activity [3]?
A: ++

Q: For `CC(C)C[C@@H](NC(=O)[C@H](Cc1c[nH]c2ccccc12)NC(=O)[C@H](NC(=O)[C@H](Cc1c[nH]c2ccccc12)NC(=O)[C@H](NC(=O)[C@H](Cc1c[nH]c2ccccc12)NC(=O)[C@@H](CC(C)C)NC(=O)[C@@H](NC(=O)[C@H](NC(=O)[C@H](C)NC(=O)[C@H](NC(=O)[C@H](C)NC(=O)CNC(=O)[C@@H](NC=O)C(C)C)C(C)C)C(C)C)C(C)C)C(C)C)C(C)C)C(=O)N[C@@H](Cc1c[nH]c2ccccc12)C(=O)NCCO` [compound 3111] (For-VGA[dV]A[dV]V[dL]W[dV]W[dV]W[dL]W-NHCH2CH2OH), which “H+/Na+ transport activity normalized” value [1] is on record?
A: 1.12

Q: What about the cell viability/% [2] of the same compound?
A: 8.2%

Q: What about the antibacterial activity [3] of the same compound?
A: -

Q: Which “H+/Na+ transport activity normalized” value [1] does the source give for `CC(C)C[C@@H](NC(=O)[C@H](C)NC(=O)CNC(=O)[C@@H](NC=O)C(C)C)C(=O)N[C@@H](C)C(=O)N[C@@H](C(=O)N[C@H](C(=O)N[C@@H](C(=O)N[C@@H](Cc1c[nH]c2ccccc12)C(=O)N[C@@H](C(=O)N[C@@H](Cc1c[nH]c2ccccc12)C(=O)N[C@H](CC(C)C)C(=O)N[C@@H](Cc1c[nH]c2ccccc12)C(=O)N[C@H](CC(C)C)C(=O)N[C@@H](Cc1c[nH]c2ccccc12)C(=O)NCCO)C(C)C)C(C)C)C(C)C)C(C)C` [compound 3124] (For-VGA[dL]A[dV]V[dV]W[dV]W[dL]W[dL]W-NHCH2CH2OH) here?
A: 1.26

Q: And the cell viability/% [2]?
A: 0.0%

Q: And the antibacterial activity [3]?
A: ++

Q: Which “H+/Na+ transport activity normalized” value [1] does the source give for `CC(C)C[C@@H](NC(=O)[C@H](C)NC(=O)CNC(=O)[C@@H](NC=O)C(C)C)C(=O)N[C@@H](C)C(=O)N[C@H](CC(C)C)C(=O)N[C@H](C(=O)N[C@H](CC(C)C)C(=O)N[C@@H](Cc1c[nH]c2ccccc12)C(=O)N[C@H](CC(C)C)C(=O)N[C@@H](Cc1c[nH]c2ccccc12)C(=O)N[C@@H](C(=O)N[C@@H](Cc1c[nH]c2ccccc12)C(=O)N[C@@H](C(=O)N[C@@H](Cc1c[nH]c2ccccc12)C(=O)NCCO)C(C)C)[C@H](C)O)C(C)C` [compound 3143] (For-VGA[dL]A[dL]V[dL]W[dL]W[dT]W[dV]W-NHCH2CH2OH) here?
A: 1.04

Q: What about the cell viability/% [2] of the same compound?
A: 99.9%

Q: And the antibacterial activity [3]?
A: +

Q: For `CNC(=O)C[C@@H](NC(=O)[C@H](Cc1c[nH]c2ccccc12)NC(=O)[C@@H](CC(C)C)NC(=O)[C@@H](NC(=O)[C@@H](CC(C)C)NC(=O)[C@H](C)NC(=O)[C@H](NC(=O)[C@H](C)NC(=O)CNC(=O)[C@@H](NC=O)C(C)C)C(C)C)C(C)C)C(=O)N[C@@H](Cc1c[nH]c2ccccc12)C(=O)N[C@@H](C(=O)N[C@@H](Cc1c[nH]c2ccccc12)C(=O)N[C@@H](C(=O)N[C@@H](Cc1c[nH]c2ccccc12)C(=O)NCCO)C(C)C)C(C)C` [compound 3144] (For-VGA[dV]A[dL]V[dL]W[dD](NHMe)W[dV]W[dV]W-NHCH2CH2OH), which “H+/Na+ transport activity normalized” value [1] is on record?
A: 1.01

Q: What about the cell viability/% [2] of the same compound?
A: 100.0%

Q: And the antibacterial activity [3]?
A: -

Q: With `CC(C)C[C@@H](NC(=O)[C@H](Cc1c[nH]c2ccccc12)NC(=O)[C@@H](CC(C)C)NC(=O)[C@H](Cc1c[nH]c2ccccc12)NC(=O)[C@@H](CC(C)C)NC(=O)[C@H](Cc1c[nH]c2ccccc12)NC(=O)[C@@H](CC(C)C)NC(=O)[C@@H](NC(=O)[C@H](NC(=O)[C@H](C)NC(=O)[C@H](NC(=O)[C@H](C)NC(=O)CNC(=O)[C@@H](NC=O)C(C)C)C(C)C)C(C)C)C(C)C)C(=O)N[C@@H](Cc1c[nH]c2ccccc12)C(=O)NCCO` [compound 3308] (For-VGA[dV]A[dV]V[dL]W[dL]W[dL]W[dL]W-NHCH2CH2OH) as the compound, how does the “H+/Na+ transport activity normalized” value [1] read?
A: 1.15

Q: And the cell viability/% [2]?
A: 0.1%

Q: And the antibacterial activity [3]?
A: ++
